According to BindingDB's records for doi:10.7270/Q2T72FVT (University of Pittsburgh, 2007):
pIC50: −log10 of the molar value.

Target: Serine/threonine-protein kinase PLK1 (Homo sapiens, UniProt P53350)
Assay: potency against Plk1 PBD phosphopeptide binding – biochemical, fluorescence polarization, dose response (AID 877)

Sequence of Serine/threonine-protein kinase PLK1 (P53350 whole entry): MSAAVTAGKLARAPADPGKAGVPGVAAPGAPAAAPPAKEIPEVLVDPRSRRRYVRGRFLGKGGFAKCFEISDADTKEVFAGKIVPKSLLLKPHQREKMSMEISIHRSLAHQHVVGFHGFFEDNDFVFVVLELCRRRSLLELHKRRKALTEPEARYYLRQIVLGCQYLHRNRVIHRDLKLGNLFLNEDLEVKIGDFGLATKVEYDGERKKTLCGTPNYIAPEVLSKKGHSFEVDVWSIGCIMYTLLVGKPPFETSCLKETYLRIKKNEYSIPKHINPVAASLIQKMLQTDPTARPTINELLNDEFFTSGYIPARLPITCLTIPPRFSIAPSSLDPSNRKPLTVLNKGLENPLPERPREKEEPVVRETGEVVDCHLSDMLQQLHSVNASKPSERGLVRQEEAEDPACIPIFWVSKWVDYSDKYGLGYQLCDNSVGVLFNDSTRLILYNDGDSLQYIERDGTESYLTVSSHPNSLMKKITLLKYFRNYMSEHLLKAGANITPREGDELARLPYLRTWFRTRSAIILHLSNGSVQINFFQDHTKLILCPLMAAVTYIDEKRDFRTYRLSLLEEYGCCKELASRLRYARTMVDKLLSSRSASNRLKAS

Row | SMILES | pIC50
1 | CC(C)Nc1nnc(SCC(=O)c2c(N)n(Cc3ccccc3)c(=O)n(C)c2=O)s1 [6-amino-1-benzyl-3-methyl-5-[2-[[5-(propan-2-ylamino)-1,3,4-thiadiazol-2-yl]sulfanyl]acetyl]pyrimidine-2,4-dione] | < 4.30
2 | Cc1ccc(C(=O)Nc2cnc3sc(C)nn3c2=O)cc1 [4-methyl-N-(2-methyl-5-oxidanylidene-[1,3,4]thiadiazolo[3,2-a]pyrimidin-6-yl)benzamide] | < 4.30
3 | COc1cc(OC)cc(C(=O)NCCCN2CCOCC2)c1 [3,5-Dimethoxy-N-(3-morpholin-4-yl-propyl)-benzamide] | < 4.30
4 | Cc1oc2c(c1C(=O)c1ccccc1)C(=O)C(=O)c1ccccc1-2 [2-methyl-3-(phenylcarbonyl)benzo[g][1]benzofuran-4,5-dione] | 4.36
5 | CCn1ccc(C(=O)Nc2ccc(N(C)C(C)=O)cc2)n1 [MLS000043435] | < 4.30
6 | CCC(Sc1nc2nnc(C)c-2c(N)n1-c1cccc(Cl)c1)C(=O)NCCOC (stereo not given) [2-[4-amino-5-(3-chlorophenyl)-3-methylpyrazolo[3,4-d]pyrimidin-6-yl]sulfanyl-N-(2-methoxyethyl)butanamide] | < 4.30
7 | c1ccc(NCc2nnc3n2CCCCC3)cc1 [MLS000057041] | < 4.30
8 | O=[N+]([O-])c1ccc(N2CCNCC2)cc1NCC1CCCO1 (stereo not given) [(2-nitro-5-piperazino-phenyl)-(tetrahydrofurfuryl)amine] | < 4.30
9 | CC1(C)CC(=O)C=C(NCc2ccncc2)C1 [5,5-dimethyl-3-(4-pyridylmethylamino)cyclohex-2-en-1-one] | < 4.30
10 | O=C(O)C1CCCCC1C(=O)Nc1ccc2c(c1)OCCO2 (stereo not given) [2-(2,3-dihydro-1,4-benzodioxin-6-ylcarbamoyl)cyclohexane-1-carboxylic acid] | < 4.30
11 | O=C(Cc1ccc(Cl)cc1)NCCN1CCCC1 [2-(4-Chloro-phenyl)-N-(2-pyrrolidin-1-yl-ethyl)-acetamide] | < 4.30
12 | Cc1ccc2cc(C(c3nnnn3C3CCCC3)N3CCN(c4ccccc4)CC3)c(=O)[nH]c2c1 (stereo not given) [3-[(1-cyclopentyltetrazol-5-yl)-(4-phenylpiperazin-1-yl)methyl]-7-methyl-1H-quinolin-2-one] | < 4.30
13 | CCn1c(SCC(N)=O)nnc1-c1ccc(S(=O)(=O)N2CCN(C)CC2)cc1 [2-[[4-ethyl-5-[4-(4-methylpiperazin-1-yl)sulfonylphenyl]-1,2,4-triazol-3-yl]sulfanyl]acetamide] | < 4.30
14 | Cc1ccc2c(c1)CC1(CN2C)C(=O)NC(=O)N(c2ccccc2C)C1=O (stereo not given) [1',6'-dimethyl-1-(2-methylphenyl)spiro[1,3-diazinane-5,3'-2,4-dihydroquinoline]-2,4,6-trione] | < 4.30
15 | Cn1nc(-c2ccc(Cl)cc2)nc2c(=O)n(C)c(=O)nc1-2 [3-(4-Chloro-phenyl)-1,6-dimethyl-1H-pyrimido[5,4-e][1,2,4]triazine-5,7-dione] | 5.61
16 | O=C1C(=C2C(=O)c3ccccc3C2=O)Nc2ccccc21 [MLS000071738] | < 4.30
17 | Cc1nn(C(C)C(=O)N2CCCCC2)c(=O)c2c1sc1ccccc12 (stereo not given) [2-(2-keto-1-methyl-2-piperidino-ethyl)-4-methyl-benzothiopheno[2,3-d]pyridazin-1-one] | < 4.30
18 | Cc1cc(C)n(-c2nnc3n2N=C(c2ccccc2)CS3)n1 [3-(3,5-dimethyl-1-pyrazolyl)-6-phenyl-7H-[1,2,4]triazolo[3,4-b][1,3,4]thiadiazine] | < 4.30
19 | CC(=O)N(N=C1Sc2ccccc2C1=O)c1ccccc1C [N-(2-methylphenyl)-N-[(3-oxo-1-benzothiophen-2-ylidene)amino]acetamide] | 4.43
20 | CN(C)c1ccc(C(=O)Nc2nc3c(s2)CCCC3)cc1 [4-(dimethylamino)-N-(4,5,6,7-tetrahydro-1,3-benzothiazol-2-yl)benzamide] | < 4.30

Row | SMILES | pIC50
21 | CCn1ncc(CN2CCN(C(=O)Nc3ccccc3C(=O)OC)CC2)c1C [2-[[4-[(1-ethyl-5-methyl-pyrazol-4-yl)methyl]piperazine-1-carbonyl]amino]benzoic acid methyl ester] | < 4.30
22 | COc1ccccc1C1SCCN1S(=O)(=O)c1cccc(C(F)(F)F)c1 (stereo not given) [2-(2-Methoxy-phenyl)-3-(3-trifluoromethyl-benzenesulfonyl)-thiazolidine] | < 4.30
23 | Cc1cccc(C)c1NC1=NC(=S)N(c2ccccc2)C12CCOC(C)(C)C2 (stereo not given) [4-(2,6-dimethylanilino)-7,7-dimethyl-1-phenyl-8-oxa-1,3-diazaspiro[4.5]dec-3-ene-2-thione] | < 4.30
24 | COc1ccc(Cn2c(=O)sc3ccccc32)cc1 [3-(4-Methoxy-benzyl)-3H-benzothiazol-2-one] | < 4.30
25 | Cc1ccc(OCC(=O)Nc2ccc(N3CCOCC3)cc2)cc1 [2-(4-methylphenoxy)-N-(4-morpholin-4-ylphenyl)acetamide] | < 4.30
26 | O=C(NC1(C(F)(F)F)NC(=O)N(CC2CCCCC2)C1=O)c1ccco1 (stereo not given) [MLS000040678] | < 4.30
27 | COc1cc(S(=O)(=O)N2CCCCCC2)ccc1-n1cnnn1 [1-(3-Methoxy-4-tetrazol-1-yl-benzenesulfonyl)-azepane] | < 4.30
28 | CCOc1ccccc1N1CCN(C2=C(NS(=O)(=O)c3cccs3)C(=O)c3ccccc3C2=O)CC1 [MLS000551587] | < 4.30
29 | Cn1c(-c2cc3ccc(OC(=O)C(C)(C)C)cc3oc2=O)nc2ccccc21 [2,2-Dimethyl-propionic acid 3-(1-methyl-1H-benzoimidazol-2-yl)-2-oxo-2H-chromen-7-yl ester] | < 4.30
30 | COc1ccc(S(=O)(=O)N(C)CC(=O)Nc2ccccc2C(F)(F)F)cc1 [2-[(4-methoxyphenyl)sulfonyl-methyl-amino]-N-[2-(trifluoromethyl)phenyl]acetamide] | < 4.30
31 | O=C(Nc1nc2ccccc2s1)c1cc2c(s1)-c1ccccc1OC2 [MLS000522634] | < 4.30
32 | CCc1noc(C)c1C(=O)N1CCOCC1 [(3-ethyl-5-methyl-1,2-oxazol-4-yl)-morpholin-4-yl-methanone] | < 4.30
33 | COc1ccc(CC2NCCC3(O)CCCCC23)cc1 (stereo not given) [1-(4-Methoxy-benzyl)-octahydro-isoquinolin-4a-ol] | < 4.30
34 | CC(=O)N1CCc2cc(Br)cc(S(=O)(=O)NCc3ccccn3)c21 [1-acetyl-5-bromo-N-(2-pyridinylmethyl)-2,3-dihydroindole-7-sulfonamide] | < 4.30
35 | CCc1nc2cc(Cl)c(Cl)cc2[nH]1 [MLS000064722] | < 4.30
36 | O=C(NC(NC(=S)Nc1ccc(Cl)cc1Cl)C(Cl)(Cl)Cl)c1cccc([N+](=O)[O-])c1 (stereo not given) [3-nitro-N-[2,2,2-trichloro-1-({[(2,4-dichlorophenyl)amino]carbonothioyl}amino)ethyl]benzamide] | < 4.30
37 | CC(C)Sc1nc(N2CCOCC2)c2c(c1C#N)CC(C)(C)N(C)C2 [3-(isopropylthio)-6,6,7-trimethyl-1-morpholino-5,8-dihydro-2,7-naphthyridine-4-carbonitrile] | < 4.30
38 | Nc1ccc2c(c1)C(=O)C(=O)c1ccccc1-2 [2-Amino-phenanthrene-9,10-dione] | 5.23
39 | Cc1cccc2[nH]c3c(N4CCN(C(=O)c5ccco5)CC4)ncnc3c12 [SMR000148910] | < 4.30
40 | O=C(CNS(=O)(=O)c1ccc(Br)s1)N1CCCC1 [5-bromanyl-N-(2-oxidanylidene-2-pyrrolidin-1-yl-ethyl)thiophene-2-sulfonamide] | < 4.30
